{"source": "patent US6495563B1", "about": "“Method and composition for prevention of scar formation in glaucoma filtration bleb and drainage fistula” (Synphora AB, priority 1999, dated 2002)", "key": {"Human fibroblasts": {"test_system": "Human fibroblasts", "experiment": "Antiproliferative effect on cultured human fibroblasts (crystal violet absorbance as measure of cell number)", "type": "cell-based", "conditions": "for Effect on cell number of the cultures (decrease in crystal violet absorbance): 10^−6 to 10^−3 Moles/l, 5-7 days; for EC50 value for reducing cell number / EC50: 5-7 days of culture, crystal violet absorbance at 595 nm; for EC50: read-out: EC50 value for reducing cell number", "procedure": "The following prostaglandins, purchased from Cayman Chemicals, Ann Arbor, Mich., USA, and Biomol Feinchemikalien GmbH, Hamburg, Germany were used in the experiments: prostaglandin A1 (PGA1), prostaglandin A2 (PGA2), prostaglandin J2 (PGJ2) and 15-deoxy-Δ^12,14-prostaglandin J2 (15-Δ^12,14-PGJ2). The chemical structures of the test compounds are depicted in FIG. 1. All test compounds were stored at −20° C., and fresh solutions containing the appropriate concentrations of the test compounds were made every second day. The test compounds were initially dissolved in ethanol and then diluted in the culture medium.\nHuman fibroblasts were used at passage 22-24. The culture medium consisted of DMEM with 10% fetal calf serum and 50 μg/ml gentamycin. Around 10,000 cells were seeded into each well of 48 well microtiter plates. The total volume of culture medium was about 250 μl/well. The cells were incubated at 37° C. with 5% CO2 humidified air. The culture medium was changed every second day, and at the same time new, freshly prepared prostaglandin was added to the medium. The test compounds were investigated at several concentrations in the range of 10^−6 to 10^−3 Moles/l. […] The concentrations in the figures depicting the results are expressed as the negative logarithm The culture medium alone served as control. After 5-7 days of culture the experiment was terminated by fixation of the cells in 1% glutaraldehyde. The cells were then stained with 0.1% crystal violet, and the stain was eluted with 2.5% sodium lauryl sulphate. The absorbance of the colored solutions was determined spectrophotometrically. Each experiment was performed at least in duplicate."}, "[1]": {"test_system": "New Zealand White adult rabbits", "experiment": "Intraocular pressure after modified trabeculectomy surgery in rabbits with topical eye drops", "type": "in vivo, rabbit", "procedure": "Ten New Zealand White adult rabbits underwent modified unilateral trabeculectomy surgery and were treated with corticosteroids and mydriatics postoperatively for about one month according to a clinical protocol. Starting the same day as the surgery was performed, the operated eye in five animals was in addition treated twice daily with PGA2-IE eye drops (10 μg/dose) for 4 months, while in the other five animals the operated eye was treated with vehicle only for the same period of time. The intraocular pressure was measured throughout the treatment period at least every second week. […] From FIG. 4 it is apparent that the difference in intraocular pressure between the vehicle-treated operated and control eyes steadily diminished with time which was quite opposite to the difference in traocular pressure between the PGA2-IE-treated operated and control eyes in FIG. 5. Thus it appears that even during this short treatment period (4 months) a difference in the level of intraocular pressure reduction between the PGA2-IE treated and vehicle-treated operated eyes is manifested, and at the end of the treatment period the difference in intraocular pressure reduction was statistically significant (p<0.05) (Table 1)."}, "[2]": {"test_system": "New Zealand White adult rabbits", "experiment": "Postsurgical intraocular inflammation after extracapsular lens extraction in rabbits", "type": "in vivo, rabbit", "conditions": "10 μg/dose twice daily; for Number of animals, operated eye Normal / Number of animals, operated eye Inflamed: 5 animals", "text": "Ten New Zealand White adult rabbits underwent extracapsular lens extraction in one eye to investigate the effect of PGA2-E on postsurgical inflammation. Lens extraction was used as a model since this procedure is always followed by some inflammatory changes. The contralateral eye was used as an untreated control eye in each animal. The operated eyes were given routine postsurgical treatment with corticosteroids and mydriatics for about one month. From the day after the surgery and for a total of 4 months 5 of the animals were treated with PGA2-IE eye drops twice daily (10 μg/dose) in the operated eye while the contralateral control (non-operated) eye received no treatment. The other 5 animals were treated with the vehicle only twice daily for the same period of time. […] The signs of inflammation comprised miosis, iridial hyperemia, flare and fibrin accumulation in the anterior chamber, and additional anti-inflammatory medication had to be given to these animals."}}, "note": "Marks after values point to notes of the source that are not given here.", "data": [{"compound": "CCCCC/C=C/C=C1/C(=O)C=C[C@@H]1C/C=C\\CCCC(=O)O", "note": "[15-deoxy-Δ^12,14-PGJ2, 15-deoxy-Δ^12,14-prostaglandin J2]", "values": [{"measurement": "Effect on cell number of the cultures (decrease in crystal violet absorbance)", "setting": "Human fibroblasts", "result": "effectively reduced the cell number"}]}, {"compound": "CCCCC[C@H](O)/C=C/[C@H]1C=CC(=O)[C@@H]1CCCCCCC(=O)O", "note": "[PGA1, prostaglandin A1]", "values": [{"measurement": "Effect on cell number of the cultures (decrease in crystal violet absorbance)", "setting": "Human fibroblasts", "result": "effectively reduced the cell number"}]}, {"compound": "CCCCC[C@H](O)/C=C/[C@H]1C=CC(=O)[C@@H]1C/C=C\\CCCC(=O)O", "note": "[PGA2, prostaglandin A2]", "values": [{"measurement": "EC50 value for reducing cell number", "setting": "Human fibroblasts", "result": "around −5.5 log units"}, {"measurement": "EC50", "setting": "Human fibroblasts", "result": "~3", "unit": "µM"}, {"measurement": "Effect on cell number of the cultures (decrease in crystal violet absorbance)", "setting": "Human fibroblasts", "result": "effectively reduced the cell number"}]}, {"compound": "CCCCC[C@H](O)/C=C/[C@H]1C=CC(=O)[C@@H]1C/C=C\\CCCC(=O)OC(C)C", "note": "[PGA2-IE, PGA2-isopropyl ester]", "values": [{"measurement": "Maintenance of the intraocular pressure at a reduced level after surgery compared with vehicle", "setting": "[1]; 4 months, 10 μg/dose twice daily", "result": "clear tendency towards better maintenance of the intraocular pressure at a reduced level"}, {"measurement": "Adverse effects in the eye (local inflammation or increased intraocular pressure)", "setting": "[1]; 4 months, 10 μg/dose twice daily topical", "result": "no adversarial effects in the eye"}, {"measurement": "Intraocular pressure, operated eye", "setting": "[1]; end of 4 month treatment, 10 μg/dose twice daily eye drops, n=5", "result": "17.2 ± 2.9", "unit": "mmHg"}, {"measurement": "Intraocular pressure, difference between control eye and operated eye", "setting": "[1]; end of 4 month treatment, 10 μg/dose twice daily eye drops, n=5, p<0.05 vs vehicle group", "result": "3.8 ± 1.0", "unit": "mmHg"}, {"measurement": "Number of animals, operated eye Normal", "setting": "[2]; 2 months after surgery", "result": 3}, {"measurement": "Number of animals, operated eye Inflamed", "setting": "[2]; 2 months after surgery, one only slightly inflamed", "result": "2*"}, {"measurement": "Anti-inflammatory effect in the eye", "setting": "[2]; 4 month treatment", "result": "remarkable anti-inflammatory effect"}, {"measurement": "Number of animals, operated eye Inflamed", "setting": "[2]; 4 months after surgery", "result": 1}, {"measurement": "Number of animals, operated eye Normal", "setting": "[2]; 4 months after surgery", "result": 4}]}, {"compound": "CCCCC[C@H](O)/C=C/[C@H]1C(=O)C=C[C@@H]1C/C=C\\CCCC(=O)O", "note": "[PGJ2, prostaglandin J2]", "values": [{"measurement": "EC50 value for reducing cell number", "setting": "Human fibroblasts", "result": "about −4.75 log units"}, {"measurement": "EC50", "setting": "Human fibroblasts", "result": "~20", "unit": "µM"}, {"measurement": "Effect on cell number of the cultures (decrease in crystal violet absorbance)", "setting": "Human fibroblasts", "result": "effectively reduced the cell number"}]}]}
